Read-outs that look alike come from different tables or passages of the source. Marks after values point to notes of the source that are not given here.
How the values were obtained:
[1] = target: T1, OCT3 (Homo sapiens, UniProt O75751); assay: Stereoselective uptake into OCT3-overexpressing HEK293 cells; details: for Vmax ± SEM / Km: HEK293 cells overexpressing human OCT3, racemic substrate, two minutes; for Vmax ± SEM: net uptake; for Clint ± SEM: quotient of vmax over Km; for Stereoselectivity Vmax: given as for (R) or for 1; for Km: read-out: Km ± SEM, net uptake minus empty vector control;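 on all read-outs here: intracellular accumulation in HEK293 cells measured by chiral HPLC-MS/MS after a 2 min substrate exposure at 37 °C, uptake normalized to total protein (bicinchoninic acid assay)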
T1 sequence (O75751 1-556): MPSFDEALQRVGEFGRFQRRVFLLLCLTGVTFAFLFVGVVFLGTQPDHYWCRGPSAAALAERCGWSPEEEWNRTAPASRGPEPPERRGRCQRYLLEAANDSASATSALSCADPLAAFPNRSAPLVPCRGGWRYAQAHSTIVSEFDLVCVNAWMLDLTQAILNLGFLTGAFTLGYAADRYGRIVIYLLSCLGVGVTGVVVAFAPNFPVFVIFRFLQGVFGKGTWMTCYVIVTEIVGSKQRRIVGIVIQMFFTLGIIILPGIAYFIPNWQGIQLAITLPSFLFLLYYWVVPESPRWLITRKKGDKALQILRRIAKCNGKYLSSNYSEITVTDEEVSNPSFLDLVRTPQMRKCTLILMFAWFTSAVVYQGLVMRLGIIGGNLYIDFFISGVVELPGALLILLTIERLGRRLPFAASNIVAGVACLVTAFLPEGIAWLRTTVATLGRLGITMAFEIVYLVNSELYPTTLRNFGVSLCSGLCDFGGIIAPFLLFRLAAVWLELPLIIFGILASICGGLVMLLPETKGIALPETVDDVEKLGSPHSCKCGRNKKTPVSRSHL

[2] = target: T2, OCT1 (Homo sapiens, UniProt O15245); assay: Stereoselective uptake into OCT1-overexpressing HEK293 cells; details: for Vmax ± SEM / Km: HEK293 cells overexpressing human OCT1, racemic substrate, two minutes; for Vmax ± SEM: net uptake; for Clint ± SEM / Stereoselectivity ClInt / Stereoselectivity Vmax / Stereoselectivity Km: OCT1; for Clint ± SEM: quotient of vmax over Km; for Stereoselectivity ClInt / Stereoselectivity Vmax / Stereoselectivity Km: ratio between enantiomers; for Stereoselectivity Km: given as for (S) or for 2 (second-eluting); for Km: read-out: Km ± SEM, net uptake minus empty vector control;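 on all read-outs here: enantiomers quantified inside cells by chiral HPLC-MS/MS, uptake normalized to total protein from bicinchoninic acid assay, substrates applied in HBSS+ buffer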
T2 sequence (O15245 1-554): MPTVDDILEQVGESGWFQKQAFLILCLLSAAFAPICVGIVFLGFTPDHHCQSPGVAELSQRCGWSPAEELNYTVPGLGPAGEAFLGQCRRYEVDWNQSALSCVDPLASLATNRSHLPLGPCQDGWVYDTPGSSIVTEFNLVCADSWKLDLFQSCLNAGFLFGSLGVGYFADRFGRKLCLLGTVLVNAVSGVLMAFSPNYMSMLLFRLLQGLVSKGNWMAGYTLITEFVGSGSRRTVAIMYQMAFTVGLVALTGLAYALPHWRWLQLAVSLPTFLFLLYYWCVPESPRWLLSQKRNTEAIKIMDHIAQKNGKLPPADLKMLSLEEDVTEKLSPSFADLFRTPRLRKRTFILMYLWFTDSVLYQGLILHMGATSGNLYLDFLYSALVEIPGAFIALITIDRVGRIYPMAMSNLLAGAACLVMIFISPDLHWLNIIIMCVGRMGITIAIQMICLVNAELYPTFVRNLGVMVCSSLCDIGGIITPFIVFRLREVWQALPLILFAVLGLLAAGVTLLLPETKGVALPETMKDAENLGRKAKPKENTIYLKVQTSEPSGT

[3] = target: T3, SERT (Homo sapiens, UniProt P31645); assay: Stereoselective uptake into SERT-overexpressing HEK293 cells; details: for Vmax ± SEM / Km: HEK293 cells overexpressing human SERT, racemic substrate, two minutes; for Vmax ± SEM: net uptake; for Clint ± SEM: SERT, quotient of vmax over Km; for Km: read-out: Km ± SEM, net uptake minus empty vector control;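 on all read-outs here: uptake into HEK293 cells stably expressing human SERT over 2 min, enantiomers measured in cell lysate by chiral HPLC-MS/MS, normalized to total protein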
T3 sequence (P31645 whole entry): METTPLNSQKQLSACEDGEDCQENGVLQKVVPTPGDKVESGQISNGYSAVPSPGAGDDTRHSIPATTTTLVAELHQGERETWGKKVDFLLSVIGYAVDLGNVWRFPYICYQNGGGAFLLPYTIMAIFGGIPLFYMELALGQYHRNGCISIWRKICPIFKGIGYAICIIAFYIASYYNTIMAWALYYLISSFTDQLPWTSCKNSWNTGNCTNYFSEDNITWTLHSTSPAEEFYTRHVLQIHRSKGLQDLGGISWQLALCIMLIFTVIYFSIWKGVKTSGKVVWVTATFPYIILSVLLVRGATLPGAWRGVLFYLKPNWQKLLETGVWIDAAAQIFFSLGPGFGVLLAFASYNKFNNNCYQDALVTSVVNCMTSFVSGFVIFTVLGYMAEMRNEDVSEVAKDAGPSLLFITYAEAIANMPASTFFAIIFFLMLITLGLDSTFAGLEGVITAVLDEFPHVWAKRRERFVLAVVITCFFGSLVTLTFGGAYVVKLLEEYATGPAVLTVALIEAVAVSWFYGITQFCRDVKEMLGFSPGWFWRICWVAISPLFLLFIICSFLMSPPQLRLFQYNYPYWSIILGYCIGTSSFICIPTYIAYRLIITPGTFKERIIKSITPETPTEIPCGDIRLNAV
Experimental: (§1) All transport experiments were carried out in HEK293 cells stably overexpressing human MATs or OCTs. […] All cells were regularly cultivated in DMEM supplemented with 10% (v/v) FCS, penicillin (100 U/mL) and streptomycin (100 μg/mL)and kept in culture for no longer than 30 passages.
(§2) For the uptake experiments, 300,000 cells were plated in poly-D-lysine precoated 24-well plates 48 h ahead of the transport experiment. On the day of experiment, cells were initially washed once with 37 °C pre-warmed HBSS+ (Hanks buffered salt solution supplemented with 10 mM HEPES) and subsequently incubated with the substrates dissolved in pre-warmed HBSS+ for exactly two minutes. Incubation was stopped by adding ice-cold HBSS+ followed by two washing steps. After this, cells were lysed with 80% acetonitrile containing 10 ng/mL milnacipran as internal standard for high-performance liquid chromatography coupled to tandem mass spectrometry (HPLC-MS/MS) analysis. For every experiment, two additional wells per cell line were lysed using RIPA buffer for protein quantification. Total protein was quantified using the bicinchoninic acid assay [42]. This was later used for normalization of the uptake data.
(§3) Intracellularly accumulated test substances were quantified by HPLC-MS/MS analysis using a Shimadzu Nexera HPLC system with a SIL-30AC autosampler, a CTO-20AC column oven, a LC-30AD pump, and a CBM-20A controller (Shimadzu, Kyoto, Japan). […] CBH HPLC column (100 × 3 mm inner dimension with 5 μM particle size; Sigma-Aldrich, Darmstadt, Germany) with a corresponding 10 × 3 mm guard column. Reversed phased chromatography was carried out using an ammonium acetate (NH4Ac) buffered aqueous mobile phase with isopropyl alcohol (IPA) as organic solvent. […] The order of elution of the enantiomers was obtained from available reference literature [43] or by applying enantiopure reference compounds to the chiral HPLC.
(§4) Detection was performed with an API 4000 tandem mass spectrometer (AB SCIEX, Darmstadt, Germany) operating in multiple-reaction-monitoring mode. Quantification was performed using the Analyst 1.6.2 software (AB SCIEX, Darmstadt, Germany) and quantified by comparison to standard curves with known concentrations.
(§5) All uptake data were normalized to protein content to account for variation in the number of seeded sells. Transporter-mediated net uptake was calculated by subtracting uptake into empty vector-transfected control cells from uptake into transporter-transfected cells. […] Vmax refers to the maximum transport velocity and Km is defined as the substance concentration required to reach half of vmax. The intrinsic clearance Clint was calculated as the quotient of vmax over Km.

[4] = target: T4, OCT2 (Homo sapiens, UniProt O15244); assay: Stereoselective uptake into OCT2 (wild-type)-overexpressing HEK293 cells; details: for Vmax ± SEM / Km: HEK293 cells overexpressing human OCT2, racemic substrate, two minutes; for Vmax ± SEM: net uptake; for Clint ± SEM: OCT2, quotient of vmax over Km; for Km: read-out: Km ± SEM, net uptake minus empty vector control
T4 sequence (O15244 1-555 S270A): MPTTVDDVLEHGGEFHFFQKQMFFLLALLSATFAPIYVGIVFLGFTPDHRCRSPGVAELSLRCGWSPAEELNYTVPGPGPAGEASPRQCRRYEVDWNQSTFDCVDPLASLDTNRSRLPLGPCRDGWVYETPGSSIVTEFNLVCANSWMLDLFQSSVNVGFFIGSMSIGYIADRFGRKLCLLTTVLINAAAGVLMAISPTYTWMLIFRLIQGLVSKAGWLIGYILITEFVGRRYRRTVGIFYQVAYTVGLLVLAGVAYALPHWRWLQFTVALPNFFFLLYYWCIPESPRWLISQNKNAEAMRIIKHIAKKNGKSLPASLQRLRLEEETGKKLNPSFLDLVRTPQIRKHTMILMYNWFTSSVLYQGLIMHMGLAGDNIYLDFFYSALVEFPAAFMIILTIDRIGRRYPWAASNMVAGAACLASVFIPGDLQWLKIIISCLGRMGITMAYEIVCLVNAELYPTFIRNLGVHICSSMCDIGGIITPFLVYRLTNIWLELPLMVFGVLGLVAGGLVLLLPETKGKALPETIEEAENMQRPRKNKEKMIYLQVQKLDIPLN

[5] = target: T5, OCT2 (Homo sapiens, UniProt O15244, S270A); assay: as above; details: OCT2, ratio between enantiomers; for Stereoselectivity Km: given as for (R) or for 1 (first-eluting)
T5 sequence (O15244 1-555 S270A): T4 sequence (O15244 1-555 S270A)

[6] = target: NET (Homo sapiens, UniProt P23975); assay: Stereoselective uptake into NET-overexpressing HEK293 cells; details: for Vmax ± SEM / Km: HEK293 cells overexpressing human NET, racemic substrate, two minutes; for Vmax ± SEM: net uptake; for Clint ± SEM / Stereoselectivity ClInt / Stereoselectivity Vmax / Stereoselectivity Km: NET; for Clint ± SEM: quotient of vmax over Km; for Stereoselectivity ClInt / Stereoselectivity Vmax / Stereoselectivity Km: ratio between enantiomers; for Stereoselectivity ClInt / Stereoselectivity Vmax: given as for (S) or for 2; for Stereoselectivity Km: given as for (S) or for 2 (second-eluting); for Km: read-out: Km ± SEM, net uptake minus empty vector control;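 on all read-outs here: intracellular enantiomers quantified in cell lysates by chiral HPLC-MS/MS after a 2 min substrate incubation, with uptake normalized to total cellular protein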
NET, sequence (P23975 whole entry): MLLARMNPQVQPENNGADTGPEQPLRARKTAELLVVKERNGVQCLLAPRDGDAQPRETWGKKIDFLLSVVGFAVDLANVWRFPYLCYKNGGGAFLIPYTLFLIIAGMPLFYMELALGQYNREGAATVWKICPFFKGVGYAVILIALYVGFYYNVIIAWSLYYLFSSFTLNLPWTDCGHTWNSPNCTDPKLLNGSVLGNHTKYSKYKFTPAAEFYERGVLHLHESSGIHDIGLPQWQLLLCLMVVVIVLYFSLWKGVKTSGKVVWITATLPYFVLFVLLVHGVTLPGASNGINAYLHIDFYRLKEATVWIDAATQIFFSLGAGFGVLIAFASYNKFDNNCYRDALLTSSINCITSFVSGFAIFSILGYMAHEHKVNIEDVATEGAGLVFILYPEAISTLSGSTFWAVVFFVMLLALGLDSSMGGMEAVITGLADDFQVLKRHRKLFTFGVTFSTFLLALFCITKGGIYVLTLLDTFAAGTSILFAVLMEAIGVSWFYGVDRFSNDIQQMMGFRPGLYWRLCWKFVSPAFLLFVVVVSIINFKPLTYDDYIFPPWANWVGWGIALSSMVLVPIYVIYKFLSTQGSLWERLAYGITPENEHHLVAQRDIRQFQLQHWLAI
Experimental: as §1, §2
(§6) Intracellularly accumulated test substances were quantified by HPLC-MS/MS analysis using a Shimadzu Nexera HPLC system with a SIL-30AC autosampler, a CTO-20AC column oven, a LC-30AD pump, and a CBM-20A controller (Shimadzu, Kyoto, Japan). Stereoselective chromatography was carried out on a [sequence] CBH HPLC column (100 × 3 mm inner dimension with 5 μM particle size; Sigma-Aldrich, Darmstadt, Germany) with a corresponding 10 × 3 mm guard column. Reversed phased chromatography was carried out using an ammonium acetate (NH4Ac) buffered aqueous mobile phase with isopropyl alcohol (IPA) as organic solvent. […] The order of elution of the enantiomers was obtained from available reference literature [43] or by applying enantiopure reference compounds to the chiral HPLC. […] Given the structural similarity of the investigated substances and the fact that separation was performed on the same column with almost identical mobile phases, we assume that this order of elution for our compound set is always the (R)- before the (S)-enantiomer.
as §4
(§7) All uptake data were normalized to protein content to account for variation in the number of seeded sells. Transporter-mediated net uptake was calculated by subtracting uptake into empty vector-transfected control cells from uptake into transporter-transfected cells. Kinetic parameters were then determined after non-linear regression following the Michaelis–Menten equation (v = vmax × [S]/(Km + [S])) using GraphPad Prism (Version 5.01 for Windows, GraphPad Software, La Jolla, CA, USA). Vmax refers to the maximum transport velocity and Km is defined as the substance concentration required to reach half of vmax. The intrinsic clearance Clint was calculated as the quotient of vmax over Km.

[7] = target: DAT (Homo sapiens, UniProt Q01959); assay: Stereoselective uptake into DAT-overexpressing HEK293 cells; details: for Clint ± SEM: quotient of vmax over Km; for Stereoselectivity ClInt / Stereoselectivity Vmax / Stereoselectivity Km: ratio between enantiomers; for Stereoselectivity ClInt / Stereoselectivity Vmax: given as for (S) or for 2; for Stereoselectivity Km: given as for (S) or for 2 (second-eluting); for Vmax ± SEM / Km: HEK293 cells overexpressing human DAT, racemic substrate, two minutes; for Vmax ± SEM: net uptake; for Km: read-out: Km ± SEM, net uptake minus empty vector control;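 on all read-outs here: intracellular accumulation measured by chiral HPLC-MS/MS in stably transfected HEK293 cells, normalized to total protein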
DAT, sequence (Q01959 whole entry): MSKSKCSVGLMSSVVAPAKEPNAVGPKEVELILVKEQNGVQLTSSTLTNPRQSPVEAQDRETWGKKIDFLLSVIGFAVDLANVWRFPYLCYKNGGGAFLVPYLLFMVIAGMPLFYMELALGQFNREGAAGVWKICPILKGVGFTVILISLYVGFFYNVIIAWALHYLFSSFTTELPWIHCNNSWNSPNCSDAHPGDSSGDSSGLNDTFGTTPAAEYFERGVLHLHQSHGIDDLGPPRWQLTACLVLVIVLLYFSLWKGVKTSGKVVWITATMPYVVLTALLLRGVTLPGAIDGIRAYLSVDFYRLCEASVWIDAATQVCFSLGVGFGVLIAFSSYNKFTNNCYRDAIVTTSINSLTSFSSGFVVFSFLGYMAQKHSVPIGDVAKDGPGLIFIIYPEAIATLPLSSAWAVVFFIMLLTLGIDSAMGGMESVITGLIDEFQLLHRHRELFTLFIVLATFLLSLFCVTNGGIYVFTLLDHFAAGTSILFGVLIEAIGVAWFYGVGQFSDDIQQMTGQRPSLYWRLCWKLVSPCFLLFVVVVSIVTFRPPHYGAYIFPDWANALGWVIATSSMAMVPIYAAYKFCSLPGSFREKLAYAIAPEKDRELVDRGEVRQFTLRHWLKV
Experimental: as §1, §2, §6, §4, §7

[8] = target: T3, SERT
Experimental: as §1, §2, §3, §4, §5

[9] = tested on: OCT2 A270S variant; assay: Stereoselective uptake into OCT2 A270S variant-overexpressing HEK293 cells; details: 100 μM racemic substance, two minutes; for Transporter selectivity: OCT2 wild-type versus A270S, given as for WT;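 on all read-outs here: uptake into HEK293 cells stably overexpressing human OCT2 variants, intracellular enantiomers quantified by chiral HPLC-MS/MS and normalized to total protein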
[10] = OCT3, ratio between enantiomers
[11] = OCT3, ratio between enantiomers, given as for (R) or for 1 (first-eluting)
[12] = OCT3, ratio between enantiomers, given as for (S) or for 2

| Structure (SMILES) | Vmax ± SEM [1] | Clint ± SEM ([1]; OCT3) | Stereoselectivity Vmax [1, 10] | Km [1] | Vmax ± SEM [2] | Clint ± SEM [2] | Km [2] | Stereoselectivity Km [3] | Stereoselectivity Vmax [3] | Vmax ± SEM [3] | Clint ± SEM [3] | Km [3] | Vmax ± SEM [4] | Clint ± SEM [4] | Km [4] | Stereoselectivity Km [5] | Vmax ± SEM [6] | Clint ± SEM [6] | Stereoselectivity ClInt [6] | Stereoselectivity Vmax [6] | other results |
| --- | --- | --- | --- | --- | --- | --- | --- | --- | --- | --- | --- | --- | --- | --- | --- | --- | --- | --- | --- | --- | --- |
| NC[C@H](O)c1ccc(O)c(O)c1 [(R)-Norepinephrine] | 3683 ± 360 pmol × mg Protein^−1 × min^−1 | 6.61 ± 3.02 mL × g Protein^−1 × min^−1 | 1.01-fold for (R) | 557 ± 200 µM | 1524 ± 330 pmol × mg Protein^−1 × min^−1 | 0.45 ± 0.28 mL × g Protein^−1 × min^−1 | 3390 ± 1420 µM | 1.01-fold for (R) | 1.79-fold for (R) ** | 727 ± 60 pmol × mg Protein^−1 × min^−1 | 4.12 ± 1.31 mL × g Protein^−1 × min^−1 | 176 ± 41.7 µM | 6603 ± 664 pmol × mg Protein^−1 × min^−1 | 3.81 ± 1.30 mL × g Protein^−1 × min^−1 | 1730 ± 418 µM | 1.32-fold for (R) | 262 ± 15 pmol × mg Protein^−1 × min^−1 | 113.3 ± 47.6 mL × g Protein^−1 × min^−1 | 1.05-fold for (S) | 1.38-fold for (S) ** | Stereoselectivity Km [1, 11]: 1.07-fold for (R); Stereoselectivity ClInt [1, 12]: 1.07-fold for (S); Stereoselectivity ClInt ([2]; given as for (S) or for 2): 1.06-fold for (S); Stereoselectivity Vmax ([2]; given as for (S) or for 2): 1.16-fold for (S); Stereoselectivity Km [2]: 1.09-fold for (S); Stereoselectivity ClInt ([5]; given as for (R) or for 1): 1.64-fold for (R); Stereoselectivity Vmax ([5]; given as for (R) or for 1): 2.17-fold for (R) **; Stereoselectivity Km [6]: 1.32-fold for (S); Km [6]: 2.31 ± 0.84 µM; Clint ± SEM ([7]; DAT): 138.8 ± 19.7 mL × g Protein^−1 × min^−1; Stereoselectivity ClInt ([7]; DAT): 1.12-fold for (S); Stereoselectivity Vmax ([7]; DAT): 1.47-fold for (S) ***; Stereoselectivity Km ([7]; DAT): 1.31-fold for (S); Vmax ± SEM [7]: 3085 ± 81 pmol × mg Protein^−1 × min^−1; Km [7]: 22.2 ± 2.6 µM; Stereoselectivity ClInt [8]: 1.78-fold for (R); Transporter selectivity [9]: 1.21 fold |
| NC[C@@H](O)c1ccc(O)c(O)c1 [(S)-Norepinephrine] | 3662 ± 299 pmol × mg Protein^−1 × min^−1 | 7.05 ± 2.73 mL × g Protein^−1 × min^−1 | 1.01-fold for (R) | 519 ± 158 µM | 1766 ± 258 pmol × mg Protein^−1 × min^−1 | 0.48 ± 0.20 mL × g Protein^−1 × min^−1 | 3710 ± 1010 µM | 1.01-fold for (R) | 1.79-fold for (R) ** | 405 ± 42 pmol × mg Protein^−1 × min^−1 | 2.31 ± 0.93 mL × g Protein^−1 × min^−1 | 175 ± 52.2 µM | 3042 ± 258 pmol × mg Protein^−1 × min^−1 | 2.32 ± 0.71 mL × g Protein^−1 × min^−1 | 1310 ± 291 µM | 1.32-fold for (R) | 362 ± 20 pmol × mg Protein^−1 × min^−1 | 118.7 ± 46.0 mL × g Protein^−1 × min^−1 | 1.05-fold for (S) | 1.38-fold for (S) ** | Stereoselectivity Km [1, 11]: 1.07-fold for (R); Stereoselectivity ClInt [1, 12]: 1.07-fold for (S); Stereoselectivity ClInt ([2]; given as for (S) or for 2): 1.06-fold for (S); Stereoselectivity Vmax ([2]; given as for (S) or for 2): 1.16-fold for (S); Stereoselectivity Km [2]: 1.09-fold for (S); Stereoselectivity ClInt ([5]; given as for (R) or for 1): 1.64-fold for (R); Stereoselectivity Vmax ([5]; given as for (R) or for 1): 2.17-fold for (R) **; Stereoselectivity Km [6]: 1.32-fold for (S); Km [6]: 3.05 ± 1.01 µM; Clint ± SEM ([7]; DAT): 155.5 ± 21.4 mL × g Protein^−1 × min^−1; Stereoselectivity ClInt ([7]; DAT): 1.12-fold for (S); Stereoselectivity Vmax ([7]; DAT): 1.47-fold for (S) ***; Stereoselectivity Km ([7]; DAT): 1.31-fold for (S); Vmax ± SEM [7]: 4524 ± 122 pmol × mg Protein^−1 × min^−1; Km [7]: 29.1 ± 3.2 µM; Stereoselectivity ClInt [8]: 1.78-fold for (R); Transporter selectivity [9]: 1.22 fold |
| C[C@@H]1NCCc2cc(O)c(O)cc21 [Salsolinol-1, Salsolinol] | 705 pmol × mg Protein^−1 × min^−1 | 3.80 mL × g Protein^−1 × min^−1 | 1.01 fold | 186 µM | 1450 pmol × mg Protein^−1 × min^−1 | 10.9 mL × g Protein^−1 × min^−1 | 133 µM | 1.85 fold | 1.34 fold | 229 pmol × mg Protein^−1 × min^−1 | 1.77 mL × g Protein^−1 × min^−1 | 129 µM | 9083 pmol × mg Protein^−1 × min^−1 | 40.9 mL × g Protein^−1 × min^−1 | 222 µM | 1.04 fold | 112 pmol × mg Protein^−1 × min^−1 | 1.24 mL × g Protein^−1 × min^−1 | 1.19 fold | 1.35 fold | Stereoselectivity ClInt [1]: 1.21 fold; Stereoselectivity Km ([1]; OCT3, ratio between enantiomers, given as for (S) or for 2 (second-eluting)): 1.20 fold; Stereoselectivity ClInt ([2]; given as for (R) or for 1 (also 1.00-fold for 1/2)): 1.00 fold; Stereoselectivity ClInt ([5]; given as for (S) or for 2): 1.05 fold; Stereoselectivity Vmax ([5]; given as for (S) or for 2): 1.01 fold; Stereoselectivity Km [6]: 1.13 fold; Km [6]: 90.1 µM; Saturable net uptake ([7]; DAT, result in words): No saturable net uptake; Stereoselectivity ClInt [8]: 2.48 fold; Net uptake by A270S variant in comparison to the wild-type [9]: 66%; Transporter selectivity ([9]; listed as (R)-Salsolinol): 1.50 fold |

From publication PMC9599461, “Stereoselectivity in the Membrane Transport of Phenylethylamine Derivatives by Human Monoamine Transporters and Organic Cation Transporters 1, 2, and 3” (Biomolecules, 2022)
